# Legend:
# BACE1 [1] = target: T1, BACE1 (Homo sapiens, UniProt P56817); assay: In Vitro Enzymatic BACE FRET (Fluorescence Resonance Energy Transfer) Assay; type: biochemical; settings: read-out: BACE1 FRET assay
# How it was run: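 Fluorescence read-out after Tris addition raises pH to neutrality and ends the reaction. Before that, a peptide substrate carrying fluorophore and quencher across the BACE cleavage site (50 nM) is incubated with enzyme for one hour at pH 4.2 in acetate containing 10% DMSO and sub-micellar genapol.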
# BACE1 [2] = target: T1, BACE1; assay: In Vitro BACE Cell-based Assay (HEK cell assay): Aβ40 in conditioned medium of cells stably expressing Amyloid Precursor Protein, sandwich ELISA; settings: read-out: HEK cell assay
# How it was run: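 APP-expressing cells were cultured 24 h in DMEM/10% FBS, then treated 24 h with compounds in 10-point dose response (top 100 μM or 10 μM; 0.1% DMSO final). Secreted Aβ40 was quantified by sandwich ELISA (pAb40 capture, biotinylated 6E10 detection, Europium TRF); IC50 from percent inhibition versus concentration.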
# [3] = Table II, Aβ40, 24 h incubation
# [4] = in vitro BACE FRET enzyme assay, IC50 class symbols
# [5] = HEK cell-based assay, Aβ40 in conditioned medium, IC50 class symbols
# T1 sequence (P56817 46-501, species assumed): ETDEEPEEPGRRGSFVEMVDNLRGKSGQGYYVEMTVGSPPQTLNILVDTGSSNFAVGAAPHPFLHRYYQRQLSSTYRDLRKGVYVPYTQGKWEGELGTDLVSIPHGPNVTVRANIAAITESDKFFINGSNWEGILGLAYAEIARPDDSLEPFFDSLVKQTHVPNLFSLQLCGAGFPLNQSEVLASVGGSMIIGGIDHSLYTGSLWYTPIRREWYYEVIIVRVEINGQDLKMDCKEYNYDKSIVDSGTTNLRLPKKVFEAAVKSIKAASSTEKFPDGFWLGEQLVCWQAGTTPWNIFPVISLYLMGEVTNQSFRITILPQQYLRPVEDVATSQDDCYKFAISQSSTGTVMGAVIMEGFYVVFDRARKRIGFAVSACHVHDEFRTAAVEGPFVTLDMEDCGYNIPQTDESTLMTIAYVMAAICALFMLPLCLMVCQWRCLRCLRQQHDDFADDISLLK
SMILES,IC50 (BACE1 [1]),"IC50 (BACE1 [1]; Table IV, class symbols)","IC50 (BACE1 [2]; Table IV, class symbols)",other results
"CC(C)(C)C#Cc1cc2c(cn1)Oc1ccc(-c3cncnc3)cc1[C@@]21COC(N)=N1 [compound 512, (5S)-3-(3,3-dimethyl-1-butyn-1-yl)-7-(5-pyrimidinyl)spiro[chromeno[2,3-c]pyridine-5,4′-[1,3]oxazol]-2′-amine]",< 0.1 µM,,,IC50 (BACE1 [2]; HEK cells): < 0.1 µM
NC1=N[C@]2(CO1)c1cc(C3=CCNCC3)ccc1Oc1ccc(-c3cncnc3)cc12 [compound 964],< 0.1 µM,,,IC50 (BACE1 [2]): < 0.1 µM
CC(C)(C)OC(=O)Cc1ccc2c(c1)[C@@]1(COC(N)=N1)c1cc(Br)ccc1O2 [compound 858],,> 5 µM,> 5 µM,
CCOC(=O)/C=C/c1ccc2c(c1)[C@]1(COC(N)=N1)c1cc(-c3cncnc3)ccc1O2 [compound 825],,0.1 to 1 µM,0.1 to 1 µM,
CC(C)c1nc(-c2ccc3c(c2)[C@@]2(COC(N)=N2)c2cc(OCC(C)(C)C)ccc2O3)cs1 [compound 832],,0.1 to 1 µM,1 to 5 µM,
CC1(C)CN(c2cnc3c(c2)[C@]2(COC(N)=N2)c2cc(-c4cccnc4F)ccc2O3)CCO1 [compound 463],< 0.1 µM,,,IC50 (BACE1 [2]; HEK cells): < 0.1 µM
CC(C)(O)C#Cc1cnc2c(c1)[C@@]1(COC(N)=N1)c1cc(-c3ccccc3)ccc1O2 [compound 709],1 to 5 µM,,,IC50 (BACE1 [2]): > 5 µM
Cc1nn(C)c(C)c1-c1ccc2c(c1)[C@@]1(COC(N)=N1)c1cc(OCC(C)(C)C)ccc1O2 [compound 213],,,,"IC50 (BACE1 [1]; Table III, IC50's in uM ranges): 0.1 to 1 µM; IC50 (BACE1 [2]; Table III, IC50's in uM ranges): 1 to 5 µM"
CC(C)(C)C#Cc1cnc2c(c1)[C@@]1(COC(N)=N1)c1cc(-c3cncnc3)cc(F)c1O2 [compound 538],,0.1 to 1 µM,0.1 to 1 µM,
"NC1=N[C@]2(CO1)c1cc(OCC3CC3(F)F)ccc1Oc1ccc(-c3cncnc3)cc12 (stereo partly drawn) [Example 62, (4S)-2′-((2,2-difluorocyclopropyl)methoxy)-7′-(5-pyrimidinyl)spiro[1,3-oxazole-4,9′-xanthen]-2-amine]",,,,IC50 (BACE1 [1]; Table II): < 0.1 µM; IC50 (BACE1 [2]; [3]): < 0.1 µM
COc1ccc(-c2ccc3c(c2)[C@@]2(COC(N)=N2)c2cc(OCC(C)(C)C)ccc2O3)c(OC)n1 [compound 909],,0.1 to 1 µM,> 5 µM,
CC1(C#Cc2cc(F)c3c(c2)[C@]2(COC(N)=N2)c2cc(-c4cncnc4)ccc2O3)COC1 [compound 475],< 0.1 µM,,,IC50 (BACE1 [2]; HEK cells): < 0.1 µM
"COc1ccc2c(c1)C1(COC(N)=N1)c1cc(-c3cccc(OC)c3F)ccc1O2 (stereo not drawn) [Example 17, 2′-(2-fluoro-3-methoxyphenyl)-7′-methoxyspiro[1,3-oxazole-4,9′-xanthen]-2-amine]",,,,"IC50 (BACE1 [1]; Table 1): 1 to 5 µM; IC50 (BACE1 [2]; Table 1, Aβ40, 24 h incubation): 1 to 5 µM"
CC(C)OCCOc1ccc2c(c1)[C@]1(COC(N)=N1)c1cc(-c3cncnc3)ccc1O2 [compound 180],,,,"IC50 (BACE1 [1]; Table III, IC50's in uM ranges): < 0.1 µM; IC50 (BACE1 [2]; Table III, IC50's in uM ranges): 0.1 to 1 µM"
CC(C)(C)C#Cc1cc2c(cn1)Oc1ccc(-c3cccnc3)cc1[C@@]21COC(N)=N1 [compound 845],,< 0.1 µM,< 0.1 µM,
COC(C)(C)C#Cc1cc(F)c2c(c1)[C@]1(COC(N)=N1)c1cc(-c3ccc(F)nc3)ccc1O2 [compound 646],,< 0.1 µM,< 0.1 µM,
NC1=NC2(CO1)c1cc(-c3ccc(F)nc3)ccc1Oc1ccc(-c3ccc(F)nc3)cc12 [compound 196],,,,"IC50 (BACE1 [1]; Table III, IC50's in uM ranges): < 0.1 µM; IC50 (BACE1 [2]; Table III, IC50's in uM ranges): 0.1 to 1 µM"
NC1=N[C@]2(CO1)c1cc(C3=CCNCC3)ccc1Oc1ccc(-c3cccnc3)cc12 [compound 810],,< 0.1 µM,< 0.1 µM,
CCOC(C)(C)COc1ccc2c(c1)[C@]1(COC(N)=N1)c1cc(-c3cccnc3)ccc1O2 [compound 172],,,,"IC50 (BACE1 [1]; Table III, IC50's in uM ranges): < 0.1 µM; IC50 (BACE1 [2]; Table III, IC50's in uM ranges): < 0.1 µM"
NC1=N[C@@]2(CO1)c1cc(-c3cccnc3)ccc1Oc1cnc(N3CCOCC3)cc12 [compound 335],,,,IC50 (BACE1 [1]; [4]): < 0.1 µM; IC50 (BACE1 [2]; [5]): < 0.1 µM
NC1=N[C@]2(CO1)c1ccccc1Oc1ncc(-c3cncnc3)cc12 [compound 661],,0.1 to 1 µM,0.1 to 1 µM,
Cc1ccc(-c2cnc3c(c2)[C@]2(COC(N)=N2)c2cc(C#CC(C)(C)O)ccc2O3)cc1 [compound 579],,< 0.1 µM,< 0.1 µM,
COc1ccc2c(c1)[C@]1(COC(N)=N1)c1cc(-c3cnc4ccccc4c3)ccc1O2 [compound 633],,1 to 5 µM,1 to 5 µM,
NC1=N[C@@]2(CO1)c1cc(-c3cccnc3)ccc1Oc1cnc(C3=CCOCC3)cc12 [compound 849],,< 0.1 µM,< 0.1 µM,
"CC(C)(F)COc1cc2c(cc1F)Oc1ccc(-c3cccnc3)cc1[C@@]21COC(N)=N1 [compound 353, (4S)-3′-fluoro-2′-(2-fluoro-2-methylpropoxy)-7′-(3-pyridinyl)spiro[1,3-oxazole-4,9′-xanthen]-2-amine]",,,,IC50 (BACE1 [1]; [4]): < 0.1 µM; IC50 (BACE1 [2]; [5]): < 0.1 µM
CC(C)Cn1cc(-c2ccc3c(c2)[C@]2(COC(N)=N2)c2cc(-c4cccnc4)ccc2O3)cn1 [compound 708],< 0.1 µM,,,IC50 (BACE1 [2]): 0.1 to 1 µM
CCC(C)(O)COc1ccc2c(c1)[C@]1(COC(N)=N1)c1cc(-c3cccnc3)ccc1O2 (stereo partly drawn) [compound 770],< 0.1 µM,,,IC50 (BACE1 [2]): < 0.1 µM

SMILES,IC50 (BACE1 [1]),"IC50 (BACE1 [1]; Table IV, class symbols)","IC50 (BACE1 [2]; Table IV, class symbols)",other results
NC1=N[C@]2(CO1)c1cc(CCC3(O)CCC3)ccc1Oc1ccc(-c3cncnc3)cc12 [compound 797],,< 0.1 µM,< 0.1 µM,
CC(C)(C)COc1ccc2c(c1)[C@]1(COC(N)=N1)c1cc(-c3ncc[nH]3)ccc1O2 [compound 979],0.1 to 1 µM,,,IC50 (BACE1 [2]): 1 to 5 µM
CC(C)(C)COc1ccc2c(c1)[C@]1(COC(N)=N1)c1ccccc1O2 [compound 655],,1 to 5 µM,> 5 µM,
Cc1csc(-c2ccc3c(c2)[C@]2(COC(N)=N2)c2cc(-c4cccnc4)ccc2O3)c1 [compound 726],< 0.1 µM,,,IC50 (BACE1 [2]): 0.1 to 1 µM
NC1=N[C@]2(CO1)c1cc(CCC3(O)CCC3)ccc1Oc1ccc(-c3cccnc3)cc12 [compound 859],,< 0.1 µM,< 0.1 µM,
NC1=N[C@]2(CO1)c1cc(C(=O)CC3CCCCC3)ccc1Oc1ccc(-c3cncnc3)cc12 [compound 141],,,,"IC50 (BACE1 [1]; Table III, IC50's in uM ranges): < 0.1 µM; IC50 (BACE1 [2]; Table III, IC50's in uM ranges): 0.1 to 1 µM"
CC(C)(C)COc1ccc2c(c1)[C@]1(COC(N)=N1)c1cc(-c3ccc(Cl)nc3)ccc1O2 [compound 887],,< 0.1 µM,0.1 to 1 µM,
CN(C)CC#Cc1ccc2c(c1)[C@@]1(COC(N)=N1)c1cc(-c3cncnc3)ccc1O2 [117b],,,,"IC50 (BACE1 [1]; Table III, IC50's in uM ranges): 1 to 5 µM; IC50 (BACE1 [2]; Table III, IC50's in uM ranges): 0.1 to 1 µM"
NC1=N[C@]2(CO1)c1ccccc1Oc1ccc(-c3cccc4ncccc34)cc12 [compound 627],,> 5 µM,> 5 µM,
CC(C)(O)C#Cc1ccc2c(c1)[C@@]1(COC(N)=N1)c1cc(-c3cccnc3)ccc1O2 [151b],,,,"IC50 (BACE1 [1]; Table III, IC50's in uM ranges): < 0.1 µM; IC50 (BACE1 [2]; Table III, IC50's in uM ranges): < 0.1 µM"
COCC#Cc1ccc2c(c1)[C@]1(COC(N)=N1)c1cc(-c3cncnc3)ccc1O2 [156a],,,,"IC50 (BACE1 [1]; Table III, IC50's in uM ranges): < 0.1 µM; IC50 (BACE1 [2]; Table III, IC50's in uM ranges): < 0.1 µM"
CC(C)(C)C#Cc1ccc2c(n1)[C@@]1(COC(N)=N1)c1cc(-c3cncnc3)ccc1O2 [compound 528],< 0.1 µM,,,IC50 (BACE1 [2]; HEK cells): < 0.1 µM
C=C(C)COc1ccc2c(c1)[C@]1(COC(N)=N1)c1cc(-c3cncnc3)ccc1O2 [compound 139],,,,"IC50 (BACE1 [1]; Table III, IC50's in uM ranges): < 0.1 µM; IC50 (BACE1 [2]; Table III, IC50's in uM ranges): < 0.1 µM"
NC1=N[C@@]2(CO1)c1cc(-c3cccnc3)ccc1Oc1cnc(N3CCCCC3)cc12 [compound 445],< 0.1 µM,,,IC50 (BACE1 [2]; HEK cells): < 0.1 µM
CC(C)(C)CC(O)c1ccc2c(c1)[C@]1(COC(N)=N1)c1cc(-c3ccc(F)nc3)ccc1O2 (stereo partly drawn) [162a],,,,"IC50 (BACE1 [1]; Table III, IC50's in uM ranges): 0.1 to 1 µM; IC50 (BACE1 [2]; Table III, IC50's in uM ranges): 0.1 to 1 µM"
CC(C)(C)C#Cc1ccc2c(c1)[C@]1(COC(N)=N1)c1cc(C3=CCOCC3)ncc1O2 [compound 800],,0.1 to 1 µM,1 to 5 µM,
NC1=N[C@@]2(CO1)c1cc(-c3cncnc3)ccc1Oc1cccnc12 [compound 525],> 5 µM,,,IC50 (BACE1 [2]; HEK cells): > 5 µM
C[C@](O)(C#Cc1ccc2c(c1)[C@]1(COC(N)=N1)c1cc(-c3cccnc3)ccc1O2)C(F)(F)F [compound 698],< 0.1 µM,,,IC50 (BACE1 [2]): < 0.1 µM
NC1=N[C@@]2(CO1)c1cc(-c3ccccc3)ccc1Oc1ncc(N3C[C@@H]4C[C@H]3CO4)cc12 [compound 454],< 0.1 µM,,,IC50 (BACE1 [2]; HEK cells): < 0.1 µM
NC1=N[C@]2(CO1)c1cc(-c3cncnc3)ccc1Oc1c(F)cc(C3=CCOCC3)cc12 [compound 637],,1 to 5 µM,0.1 to 1 µM,
CC(C)(C)C#Cc1ccc2c(c1)[C@@]1(COC(N)=N1)c1cc(-c3cccnc3)cnc1O2 [compound 160],,,,"IC50 (BACE1 [1]; Table III, IC50's in uM ranges): < 0.1 µM; IC50 (BACE1 [2]; Table III, IC50's in uM ranges): < 0.1 µM"
NC1=N[C@]2(CO1)c1cc(OCC3CCOCC3)ccc1Oc1ccc(-c3cccnc3)cc12 [compound 933],< 0.1 µM,,,IC50 (BACE1 [2]): < 0.1 µM
NC1=N[C@@]2(CO1)c1cc(-c3cccnc3)ccc1Oc1ccc(-c3cncnc3)cc12 [compound 225],,,,"IC50 (BACE1 [1]; Table III, IC50's in uM ranges): < 0.1 µM; IC50 (BACE1 [2]; Table III, IC50's in uM ranges): < 0.1 µM"
NC1=N[C@@]2(CO1)c1cc(-c3cccnc3)ccc1Oc1cnc(N3CCC4(CC3)OCCO4)cc12 [compound 443],< 0.1 µM,,,IC50 (BACE1 [2]; HEK cells): < 0.1 µM
"CC(C)(C)COc1ccc2c(c1)C1(COC(N)=N1)c1cc(Br)ccc1O2 (stereo not drawn) [Example 57, 2′-bromo-7′-(2,2-dimethylpropoxy)spiro[1,3-oxazole-4,9′-xanthen]-2-amine]",,,,IC50 (BACE1 [1]; Table II): 0.1 to 1 µM; IC50 (BACE1 [2]; [3]): 1 to 5 µM
CC(C)(C)COc1ccc2c(c1)[C@]1(COC(N)=N1)c1cc(-c3ccc(C#N)cc3)ccc1O2 [compound 972],0.1 to 1 µM,,,IC50 (BACE1 [2]): > 5 µM
CC(C)C#Cc1cnc2c(c1)[C@]1(COC(N)=N1)c1cc(-c3cncnc3)ccc1O2 [compound 743],< 0.1 µM,,,IC50 (BACE1 [2]): < 0.1 µM
